Measured values as given in ChEMBL document CHEMBL3112505, “Discovery of novel indazole derivatives as dual angiotensin II antagonists and partial PPARγ agonists” (Bioorg Med Chem Lett, 2014).
Calls of active or inactive are those of the source. The calls are words filed in the database; no cut-off is given here.

Tests used:
[1] = target: T1, Type-1 angiotensin II receptor (Homo sapiens, UniProt P30556); experiment: Antagonist activity at human AT1 receptor expressed in CHO cells measured after overnight incubation by luciferase reporter gene assay; type: cell-based
T1 sequence (P30556 whole entry): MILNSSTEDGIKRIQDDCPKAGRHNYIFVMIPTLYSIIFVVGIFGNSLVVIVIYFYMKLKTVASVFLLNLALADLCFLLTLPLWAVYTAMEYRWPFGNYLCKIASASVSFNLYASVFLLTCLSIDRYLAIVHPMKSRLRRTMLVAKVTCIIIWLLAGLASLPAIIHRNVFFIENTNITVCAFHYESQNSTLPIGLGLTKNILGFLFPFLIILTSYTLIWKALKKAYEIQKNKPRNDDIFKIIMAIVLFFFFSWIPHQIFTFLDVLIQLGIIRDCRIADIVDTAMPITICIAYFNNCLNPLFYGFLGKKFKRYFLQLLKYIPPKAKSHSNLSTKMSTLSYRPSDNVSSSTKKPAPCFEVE

[2] = target: T2, Peroxisome proliferator-activated receptor gamma (Mus musculus, UniProt P37238); experiment: Agonist activity at mouse PPARgamma expressed in CV-1 cells by reporter gene assay; type: cell-based
T2 sequence (P37238 whole entry): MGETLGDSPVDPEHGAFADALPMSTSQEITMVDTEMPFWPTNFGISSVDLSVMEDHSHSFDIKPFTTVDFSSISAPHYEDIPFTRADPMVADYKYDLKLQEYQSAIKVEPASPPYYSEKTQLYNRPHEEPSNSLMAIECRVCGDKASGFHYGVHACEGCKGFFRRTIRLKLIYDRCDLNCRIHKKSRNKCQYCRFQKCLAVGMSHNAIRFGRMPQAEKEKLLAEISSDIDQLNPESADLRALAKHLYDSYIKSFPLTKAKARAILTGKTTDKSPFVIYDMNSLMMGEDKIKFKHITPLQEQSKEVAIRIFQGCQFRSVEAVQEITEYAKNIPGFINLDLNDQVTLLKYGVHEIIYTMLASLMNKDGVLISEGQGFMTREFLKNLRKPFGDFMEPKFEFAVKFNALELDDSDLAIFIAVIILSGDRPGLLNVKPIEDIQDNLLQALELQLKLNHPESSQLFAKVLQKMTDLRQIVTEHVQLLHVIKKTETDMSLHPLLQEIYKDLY

[3] = target: T3, Peroxisome proliferator-activated receptor gamma (Homo sapiens, UniProt P37231); experiment: Agonist activity at human PPARgamma expressed in CV-1 cells by reporter gene assay; type: cell-based
T3 sequence (P37231 whole entry): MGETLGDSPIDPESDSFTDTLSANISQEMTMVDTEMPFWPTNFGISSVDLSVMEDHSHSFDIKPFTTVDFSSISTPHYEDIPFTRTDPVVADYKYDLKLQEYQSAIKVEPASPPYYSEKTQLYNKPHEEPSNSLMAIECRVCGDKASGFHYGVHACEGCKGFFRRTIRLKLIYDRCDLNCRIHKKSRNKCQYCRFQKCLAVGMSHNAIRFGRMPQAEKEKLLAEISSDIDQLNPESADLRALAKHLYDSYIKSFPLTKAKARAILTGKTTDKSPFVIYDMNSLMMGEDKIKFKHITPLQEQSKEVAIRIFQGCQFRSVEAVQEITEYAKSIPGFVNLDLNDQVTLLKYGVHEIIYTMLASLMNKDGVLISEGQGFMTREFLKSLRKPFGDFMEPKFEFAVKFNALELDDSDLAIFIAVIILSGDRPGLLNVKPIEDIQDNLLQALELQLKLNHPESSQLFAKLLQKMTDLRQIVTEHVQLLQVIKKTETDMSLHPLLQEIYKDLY

[4] = target: T4, Peroxisome proliferator-activated receptor delta (Mus musculus, UniProt P35396); experiment: Agonist activity at mouse PPARdelta expressed in CV-1 cells by reporter gene assay; type: cell-based
T4 sequence (P35396 whole entry): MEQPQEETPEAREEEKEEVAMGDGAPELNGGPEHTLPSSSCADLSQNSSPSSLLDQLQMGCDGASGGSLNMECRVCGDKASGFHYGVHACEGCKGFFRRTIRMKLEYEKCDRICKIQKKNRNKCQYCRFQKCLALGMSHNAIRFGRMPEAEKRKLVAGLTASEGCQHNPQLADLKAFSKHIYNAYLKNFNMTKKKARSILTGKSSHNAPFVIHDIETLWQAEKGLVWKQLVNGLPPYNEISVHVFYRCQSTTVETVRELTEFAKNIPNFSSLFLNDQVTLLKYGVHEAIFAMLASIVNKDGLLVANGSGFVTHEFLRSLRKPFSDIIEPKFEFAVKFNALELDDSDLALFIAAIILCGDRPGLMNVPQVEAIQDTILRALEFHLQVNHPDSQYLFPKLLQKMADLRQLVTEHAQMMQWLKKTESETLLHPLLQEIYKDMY

[5] = target: T5, Peroxisome proliferator-activated receptor gamma (Mus musculus) (UniProt P37238); experiment: Agonist activity at mouse PPARgamma expressed in CV-1 cells by reporter gene assay relative to rosiglitazone; type: cell-based
T5 sequence (whole entry): T2 sequence (P37238 whole entry)

[6] = target: T6, Peroxisome proliferator-activated receptor alpha (Mus musculus, UniProt P23204); experiment: Agonist activity at mouse PPARalpha expressed in CV-1 cells by reporter gene assay; type: cell-based
T6 sequence (P23204 whole entry): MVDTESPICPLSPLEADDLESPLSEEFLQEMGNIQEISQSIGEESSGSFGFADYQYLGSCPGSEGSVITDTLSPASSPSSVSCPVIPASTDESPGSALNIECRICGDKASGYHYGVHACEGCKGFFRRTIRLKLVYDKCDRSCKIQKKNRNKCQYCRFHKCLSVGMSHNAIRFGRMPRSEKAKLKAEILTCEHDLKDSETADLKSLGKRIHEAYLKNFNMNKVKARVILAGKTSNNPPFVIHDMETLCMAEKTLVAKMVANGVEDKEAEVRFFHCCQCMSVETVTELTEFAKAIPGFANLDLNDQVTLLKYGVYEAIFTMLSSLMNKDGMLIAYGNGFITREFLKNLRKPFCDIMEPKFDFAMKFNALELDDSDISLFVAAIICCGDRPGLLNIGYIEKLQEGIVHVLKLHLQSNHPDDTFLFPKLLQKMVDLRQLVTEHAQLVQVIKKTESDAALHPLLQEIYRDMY

[7] = target: T7, Peroxisome proliferator-activated receptor gamma (Homo sapiens) (UniProt P37231); experiment: Partial agonist activity at human PPARgamma expressed in CV-1 cells by reporter gene assay relative to rosiglitazone; type: cell-based
T7 sequence (whole entry): T3 sequence (P37231 whole entry)

[8] = target: T3, Peroxisome proliferator-activated receptor gamma; experiment: Partial agonist activity at human PPARgamma expressed in CV-1 cells by reporter gene assay; type: cell-based
[9] = target: T5, Peroxisome proliferator-activated receptor gamma (Mus musculus); experiment: Partial agonist activity at mouse PPARgamma expressed in CV-1 cells by reporter gene assay relative to rosiglitazone; type: cell-based
[10] = target: T2, Peroxisome proliferator-activated receptor gamma; experiment: Partial agonist activity at mouse PPARgamma expressed in CV-1 cells by reporter gene assay; type: cell-based
Rattus norvegicus [11] = experiment: Reduction in triglyceride level in Zucker fa/fa rat plasma at 1 mg/kg, po qd for 5 days relative to vehicle-treated control control; type: functional, organism-based; design: dose 1 mg/kg
Rattus norvegicus [12] = experiment: Reduction in free fatty acid level in Zucker fa/fa rat plasma at 1 mg/kg, po qd for 5 days relative to vehicle-treated control control; type: functional, organism-based; design: dose 1 mg/kg
Rattus norvegicus [13] = experiment: Toxicity in Zucker fa/fa rat assessed as increase in body weight gain at 1 mg/kg, po qd for 5 days relative to vehicle-treated control control; type: organism-based; design: dose 1 mg/kg, route oral; details: in vivo, 120 h
Rattus norvegicus [14] = experiment: Toxicity in Zucker fa/fa rat assessed as increase in body weight gain at 75 mg/kg, po qd for 5 days relative to vehicle-treated control control; type: organism-based; design: dose 75 mg/kg, route oral; details: in vivo, 120 h
Rattus norvegicus [15] = experiment: Reduction in insulin level in Zucker fa/fa rat plasma at 1 mg/kg, po qd for 5 days relative to vehicle-treated control control; type: functional, organism-based; design: dose 1 mg/kg

Q: Which results are given for `CCCc1nn2ccc(C(=O)NC(CC)c3ccccc3)cc2c1Cc1ccc(-c2ccccc2C(=O)O)cc1` (configuration not stated)?
A: IC50 [1]: 1690 nM; EC50 [2]: 1020 nM; EC50 [3]: 390 nM; EC50 [4]: > 10000 nM; max activation [5]: 32%; EC50 [6]: > 10000 nM

Q: How did the IC50 [1] turn out when `CCCc1nn2ccc(-c3nc4ccccc4n3CCC)cc2c1Cc1ccc(-c2ccccc2C(=O)O)cc1` was run?
A: The IC50 was 85 nM.

Q: And the EC50 [2]?
A: Its EC50 is 380 nM.

Q: And the EC50 [3]?
A: The EC50 was 280 nM.

Q: And the EC50 [4]?
A: The EC50 was over 10000 nM.

Q: What about the max activation [5] of the same compound?
A: Its max activation is 27%.

Q: What about the EC50 [6] of the same compound?
A: The EC50 was over 10000 nM.

Q: `CCCCn1c(-c2ccc3nn(CCC)c(Cc4ccc(-c5ccccc5C(=O)O)cc4)c3c2)nc2ccccc21` was tested. Which IC50 [1] did it give?
A: The IC50 was 60 nM.

Q: What about the EC50 [2] of the same compound?
A: Its EC50 is 1390 nM.

Q: And the EC50 [3]?
A: The EC50 was 640 nM.

Q: And the EC50 [4]?
A: Its EC50 is over 10000 nM.

Q: And the max activation [5]?
A: The max activation was 37%.

Q: What about the EC50 [6] of the same compound?
A: Its EC50 is over 10000 nM.

Q: For `CCCn1nc2ccc(C(=O)NC(CC)c3ccccc3)cc2c1Cc1ccc(-c2ccccc2C(=O)O)cc1` (configuration not stated), which IC50 [1] is on record?
A: The IC50 was 1000 nM.

Q: And the max activation [7]?
A: The max activation was 24%.

Q: And the EC50 [4]?
A: Its EC50 is over 10000 nM.

Q: What about the EC50 [8] of the same compound?
A: Its EC50 is 130 nM.

Q: What about the EC50 [6] of the same compound?
A: Its EC50 is over 10000 nM.

Q: What about the max activation [9] of the same compound?
A: The max activation was 19%.

Q: And the EC50 [10]?
A: The EC50 was 250 nM.

Q: What does the source list for `CCCc1c(Cc2ccc(-c3ccccc3C(=O)O)cc2)c2cc(C(=O)NC(CC)c3ccccc3)ccc2n1OC` (configuration not stated)?
A: IC50 [1]: > 10000 nM; EC50 [2]: 200 nM; EC50 [3]: 90 nM; EC50 [4]: > 10000 nM; max activation [5]: 17%; EC50 [6]: > 10000 nM

Q: Which results are given for `CN(CCOc1ccc(C[C@H](Nc2ccccc2C(=O)c2ccccc2)C(=O)O)cc1)c1ccccn1`?
A: Activity (Rattus norvegicus [11]): Active; Activity (Rattus norvegicus [12]): Active; Activity (Rattus norvegicus [13]): Toxic; Activity (Rattus norvegicus [14]): Non-toxic; Activity (Rattus norvegicus [15]): Active

Q: For `CCCc1nn2ccc(-c3nc4ccccc4n3CCC)cc2c1Cc1ccc(-c2ccccc2-c2nnn[nH]2)cc1`, which IC50 [1] is on record?
A: Its IC50 is 23 nM.

Q: What about the EC50 [2] of the same compound?
A: The EC50 was 130 nM.

Q: What about the EC50 [3] of the same compound?
A: The EC50 was 80 nM.

Q: And the EC50 [4]?
A: Its EC50 is over 10000 nM.

Q: And the EC50 [6]?
A: Its EC50 is over 10000 nM.

Q: With `CCCc1nn2ccc(-c3nc4ccccc4n3CCC)cc2c1Cc1ccc(-c2ccccc2-c2nn[nH]n2)cc1` as the compound, how does the max activation [5] read?
A: Its max activation is 60%.
